Like-named read-outs stand apart in the source and are kept apart here.
Legend:
[1] = tested on: männlichen Ratten der Art Long Evans; assay: animal or person; assay type: in vivo; settings: for Prozentuale Hemmung bei einer peroralen Dosis von 3,12 mg/kg: peroral 3,12 mg/kg; for change in vivo at 6.25 mg/kg / change in vivo at 12.5 mg/kg: 504 h; for change in vivo at 6.25 mg/kg: read-out: Prozentuale Hemmung bei einer peroralen Dosis von 6,25 mg/kg; for Prozentuale Hemmung bei einer peroralen Dosis von 1,56 mg/kg: peroral 1,56 mg/kg; for ED50: read-out: Peroraler ED50-Wert in mg/kg an Ratten; for Therapeu-tischer Index LD50-Wert / ED50-Wert: ratio of peroral LD50 to peroral ED50, rats
Procedure: Die Untersuchung der therapeutischen Wirkung der erfindungsgemäßen 1,2,4-Triazolderivate wurde mittels des modifizierten Newbould-Prüfversuches (Brit. J. Pharmacol., 21 [1963], Seite 127) durchgeführt. Dazu wurde in die rechen Hinterfüße von männlichen Ratten der Art Long Evans mit Gewichten von 180 bis 250 g intraplantar […] abgetötetes Mycobacterium tuberculosis in einem Volumen von 0,1 ml injiziert. Nachfolgend wurden die Ratten pro betreffenden Tag mit einer Dosis der zu untersuchenden Verbindung insgesamt 16-mal während 3 Wochen behandelt. Die Änderung des Volumens der Fußschwellung wurde 21 Tage lang täglich mit einem Quecksilber-Plethysmometer vom Lence-Typ bestimmt. Vom 10-ten Tag an wurde das Volumen des linken Hinterfußes bestimmt. Die prozentuale Hemmung wurde im Verhältnis zu diesem Volumen aus der eintretenden Änderung in der Schwellung des rechten Hinterfußes berechnet.

[2] = tested on: Ratten; assay: ulcerogenic side effect; assay type: in vivo
Procedure: Auch die geschwürbildende beziehungsweise ulcerogene Wirkung, eine der kritischsten Nebenwirkungen entzündungshemmender Mittel, betreffend erwiesen sich die erfindungsgemäßen 1,2,4-Triazolderivate als im Vergleich zu Handelspräparaten günstiger. So führten Einzeldosen von 15 mg/kg 1-(p-Chlorbenzoyl)-5-(methoxy)-2-(methyl)-indol-3-ylessig- säure {Indometacin} bei 100% der Ratten Geschwüre (Ulcus) herbei, während Einzeldosen von 1 000 mg/kg 1,5-Bis-[4'--(chlor)-phenyl]-3-[methylthio]-1,2,4-triazol (Verbindung des Beispieles 27) nur bei 10% der Tiere Geschwüre verursachten.

[3] = in vivo; settings: rat, po, peroral, rats, read-out: Peroraler LD50-Wert in mg/kg an Ratten
[4] = 16 doses during 3 weeks, paw swelling, rats
[5] = po, peroral 12,5 mg/kg, 16 doses during 3 weeks, paw swelling, rats, read-out: Prozentuale Hemmung bei einer peroralen Dosis von 12,5 mg/kg
[6] = po, read-out: Prozentuale Hemmung bei einer peroralen Dosis von 12,5 mg/kg

SMILES	Prozentuale Hemmung bei einer peroralen Dosis von 3,12 mg/kg [1, 4]	change in vivo at 6.25 mg/kg ([1]; po)	change in vivo at 12.5 mg/kg [1, 5]	also measured
Clc1ccc(-c2nc(SCc3ccccn3)nn2-c2ccc(Cl)cc2)cc1 [Beispiel 4, 1,5-Bis-[4'-(chlor)-phenyl]-3-[pyrid-2"-ylmethyl-thio]-1,2,4-triazol]	-38%	-40%	–	–
CSc1nc(-c2ccccc2SC)n(-c2ccc(Cl)cc2)n1 [Beispiel 14, 1-[4'-(Chlor)-phenyl]-5-[2"-(methylthio)-phenyl]-3--[methylthio]-1,2,4-triazol]	-5%	–	-51%	–
CSc1nc(-c2ccc(Cl)cc2)n(-c2ccc(Cl)cc2)n1 [Beispiel 27, 1,5-Bis-[4'-(chlor)-phenyl]-3--[methylthio]-1,2,4-triazol]	-39%	-55%	–	Prozentuale Hemmung bei einer peroralen Dosis von 1,56 mg/kg [1, 4]: -17%; change in vivo at 12.5 mg/kg [1, 6]: -67%; ED50 ([1]; po): 7.4 mg/kg; Tiere mit Geschwüren ([2]; single dose 1 000 mg/kg, share of animals with ulcers): 10%
CSc1nc(-c2cccs2)n(-c2ccc(Cl)cc2)n1 [Beispiel 30, 1-[4'-(Chlor)-phenyl]-5-[thien-2"-yl]-3-[methylthio]--1,2,4-triazol]	–	–	-44%	–
CSc1nc(-c2ccc(F)cc2)n(-c2ccc(F)cc2)n1 [Beispiel 41, 1-[4'-(Fluor)-phenyl]-5-[4"-(fluor)-phenyl]-3--[methylthio]-1,2,4-triazol]	-42%	-57%	–	–
CSc1nc(-c2ccc(Cl)cc2)n(-c2cccc(C(F)(F)F)c2)n1 [Beispiel 42, 1-[3'-(Trifluormethyl)-phenyl]-5-[4"-(Chlor)-phenyl]--3-[methylthio]-1,2,4-triazol]	–	-48%	–	–
CSc1nc(-c2ccc(F)cc2)n(-c2ccc(Cl)cc2)n1 [Beispiel 44, 1-[4'-(Chlor)-phenyl]-5-[4"-(fluor)-phenyl]-3--[methylthio]-1,2,4-triazol]	-64%	-53%	–	Prozentuale Hemmung bei einer peroralen Dosis von 1,56 mg/kg [1, 4]: -36%; ED50 ([1]; po): 2.1 mg/kg; Therapeu-tischer Index LD50-Wert / ED50-Wert [1]: 81,0; LD50 [3]: 170 mg/kg
CSc1nc(-c2ccc(C(F)(F)F)cc2)n(-c2ccc(F)cc2)n1 [Beispiel 45, 1-[4'-(Fluor)-phenyl]-5-[4"-(trifluormethyl)-phenyl]--3-[methylthio]-1,2,4-triazol]	–	-25%	-48%	–
CSc1nc(-c2ccc(F)cc2)n(-c2cccc(C(F)(F)F)c2)n1 [Beispiel 47, 1-[3'-(Trifluormethyl)-phenyl]-5-[4"-(fluor)-phenyl]--3-[methylthio]-1,2,4-triazol]	–	-22%	-53%	–
CSc1nc(-c2ccc(F)cc2)n(-c2cccc(Cl)c2)n1 [Beispiel 53, 1-[3'-(Chlor)-phenyl]-5-[4"-(fluor)-phenyl]-3--[methylthio]-1,2,4-triazol]	–	–	-51%	–
CSc1nc(-c2ccc(Cl)cc2)n(-c2ccc(Br)cc2)n1 [Beispiel 54, 1-[4'-(Brom)-phenyl]-5-[4"-(chlor)-phenyl]-3--[methylthio]-1,2,4-triazol]	–	-28%	-56%	–
CSc1nc(-c2ccc(Cl)cc2)n(-c2ccc(F)cc2)n1 [Beispiel 55, 1-[4'-(Fluor)-phenyl]-5-[4"-(chlor)-phenyl]-3--[methylthio]-1,2,4-triazol]	-26%	-68%	–	Prozentuale Hemmung bei einer peroralen Dosis von 1,56 mg/kg [1, 4]: -12%; ED50 ([1]; po): 6.8 mg/kg; Therapeu-tischer Index LD50-Wert / ED50-Wert [1]: 55,9; LD50 [3]: 380 mg/kg
COc1ccc2c(c1)c(CC(=O)O)c(C)n2C(=O)c1ccc(Cl)cc1 [Indometacin, 1-(p-Chlorbenzoyl)-5-(methoxy)-2-(methyl)-indol-3-ylessig-säure, reference compound]	–	–	–	Ratten mit Geschwüren (Ulcus) ([2]; single dose 15 mg/kg, share of rats with ulcers): 100%
CCCCC1C(=O)N(c2ccccc2)N(c2ccccc2)C1=O [Vergleichs-substanz A, 4-(Butyl)-1,2-di-(phenyl)-pyrazolidin-3,5-dion, reference compound]	–	–	-7%	–
COc1ccc2cc([C@H](C)C(=O)O)ccc2c1 [Vergleichs-substanz B, (+)-2-[6'--(Methoxy)-naphth-2'-yl]-propionsäure, reference compound]	–	–	–	ED50 ([1]; po): 12.5 mg/kg; change in vivo at 10 mg/kg [1, 6]: -34%
